Results from patent US11191757B2, “Combination of pimavanserin and cytochrome P450 modulators” (ACADIA Pharmaceuticals Inc., priority 2016, dated 2021).
Entries after “also recorded” stand apart in the source; their conditions may differ. Values belong to the compound of their own block, whether it stands above or below them.

Columns and labels:
[1] = Elimination half-life of circulating metabolite M1 in humans in vivo; parameters: species or system human
[2] = Pharmacokinetics of single-dose pimavanserin alone and in the presence of multiple-dose ketoconazole (strong CYP3A inhibitor) in healthy subjects; conditions: for exposure to metabolite, mean AUC ratio AUC(metabolite)/AUC(parent): after a single dose of pimavanserin; for metabolite plasma concentrations with ketoconazole co-administration: metabolite in plasma after pimavanserin tartrate 40 mg with ketoconazole 400 mg daily; for metabolite plasma levels after pimavanserin: metabolite in plasma after single dose pimavanserin tartrate 40 mg, 19 subjects
Procedure: (§2) 20 subjects (14 males and 6 females) were enrolled in this study. These subjects were healthy male or female subjects between the ages of 18 and 55 years, and with a body mass index (BMI) between 18 and 30 kg/m^2. Among the 20 subjects, 10 subjects (50%) were black, 9 subjects (45%) were white and 1 subject (5%) was American Indian/Alaska native.
(§3) On Day 1, subjects received a single oral dose of pimavanserin tartrate 40 mg (2×20 mg tablets) under fasting conditions. On Day 15, subjects began taking ketoconazole 400 mg (2×200 mg tablets) orally once daily for 14 days. A single oral dose of pimavanserin tartrate 40 mg was administered under fasting conditions 60 minutes after the fifth ketoconazole dose (on Day 19). Both single doses of pimavanserin tartrate were administered on an empty stomach, following an overnight fast of approximately 10 hours prior to dosing. Subjects continued to fast for 4 hours after administration of pimavanserin tartrate.
(§4) Samples for pimavanserin pharmacokinetic (PK) analysis were collected prior to each pimavanserin dose and at scheduled time points up to 14 days post-dose. More specifically, blood samples for the determination of plasma pimavanserin and four of its metabolites were collected at the following time points in relation to pimavanserin dosing on Day 1 and Day 19: pre-dose (within 30 minutes of dosing), 1, 2, 4, 6, 9, 12, 16, 24, 36, 48, 72, 96, 144, 192, 264, and 336 hours post-dose. The pharmacokinetics of pimavanserin and four metabolites, M1 (N-desmethyl-pimavanserin), M2 (O-desalkyl-pimavanserin), M3 ([ω-1]-hydroxy-pimavanserin), and M4 (ω-hydroxy-pimavanserin), by treatment consisting of pimavanserin alone and pimavanserin with ketoconazole, were assessed using noncompartmental analysis.
(§5) The following parameters were determined for pimavanserin, M1, M2 and M3 (the analytes for which there was a sufficient number of quantifiable post-dose concentrations): the area under the concentration-time curve from 0 to the time of the last measurable concentration (AUC0-t); the area from 0 to infinity (AUC0-inf); the percent of the extrapolated portion of the AUC0-inf (% AUCext); the maximum observed plasma concentration (Cmax); time of maximum plasma concentration (Tmax); apparent first-order terminal elimination rate constant (kel), and apparent first-order terminal elimination half-life (t1/2). Additional PK parameters computed for pimavanserin were oral clearance (CL/F), and apparent volume of distribution (Vz/F). Where feasible, as in the case of pimavanserin, M1, M2 and M3, parent ratios, which were computed as AUC(metabolite)/AUC(parent) ratios based on both AUC0-t and AUC0-inf were also determined.
(§6) A two-sided paired t-test was performed on the natural log-transformed pimavanserin AUC0-t, AUC0-inf, and Cmax at the alpha level of 0.05. The geometric ratio of treatment means (pimavanserin with ketoconazole/pimavanserin alone) and 90% geometric confidence intervals for the ratio of means were calculated for AUC0-t, AUC0-inf, and Cmax.

[3] = Safety and tolerability of single-dose pimavanserin alone and in the presence of ketoconazole in healthy subjects; type: in vivo, human; conditions: for treatment-related TEAEs considered related to the substance, number (% of the 16 treatment-related TEAEs): 20 healthy subjects, pimavanserin tartrate 40 mg single doses, ketoconazole 400 mg daily for 14 days; for safety and tolerability: healthy adult subjects
Procedure: The subject who was discontinued was not replaced.
Safety data (including adverse events (AEs)), laboratory tests, vital sign measurements, electrocardiograms (ECGs), and physical examination (PE) were reviewed throughout the study for the purpose of safety monitoring. Clinical laboratory assessments were obtained on Day −1, Day 18, and the end of study visit. Vital signs were performed at each study visit, except on Day −1. A 12-lead ECG was performed on Day −1, Day 1, Day 19 and the end of study visit. Other safety measures included physical examination on Days −1, 3, 23, and the end of study visit and any other measures deemed necessary.
All available safety data from subjects receiving at least one dose of study medication were included in the safety analyses. The frequency of AEs was tabulated. Pre-treatment, within study, and end of study, and change from pre-treatment laboratory, vital signs, and ECG parameters were summarized. Shift tables were prepared for laboratory parameters.

CYP3A4 = target: T1, CYP3A4 (Homo sapiens, UniProt P08684); assay: Effect of pimavanserin on the pharmacokinetics of midazolam, in vivo probe drug for CYP3A4; conditions: 34 mg pimavanserin for up to 38 days, humans
T1 construct: from tissue; host or cells: human subjects in vivo (endogenous hepatic/intestinal enzyme)
Procedure: In this study, the pharmacokinetics of midazolam, a sensitive in vivo probe drug for CYP3A4 and an accepted probe drug for CYP3A4, were evaluated in the presence of pimavanserin in humans. […] No dose adjustment is therefore required for other CYP3A4 substrates when coadministered with pimavanserin.

CYP2J2 = target: T2, CYP2J2 (Homo sapiens, UniProt P51589); assay: In vitro studies of the enzymes forming the primary metabolites of pimavanserin; type: in vitro ADME
T2 sequence (P51589 1-502): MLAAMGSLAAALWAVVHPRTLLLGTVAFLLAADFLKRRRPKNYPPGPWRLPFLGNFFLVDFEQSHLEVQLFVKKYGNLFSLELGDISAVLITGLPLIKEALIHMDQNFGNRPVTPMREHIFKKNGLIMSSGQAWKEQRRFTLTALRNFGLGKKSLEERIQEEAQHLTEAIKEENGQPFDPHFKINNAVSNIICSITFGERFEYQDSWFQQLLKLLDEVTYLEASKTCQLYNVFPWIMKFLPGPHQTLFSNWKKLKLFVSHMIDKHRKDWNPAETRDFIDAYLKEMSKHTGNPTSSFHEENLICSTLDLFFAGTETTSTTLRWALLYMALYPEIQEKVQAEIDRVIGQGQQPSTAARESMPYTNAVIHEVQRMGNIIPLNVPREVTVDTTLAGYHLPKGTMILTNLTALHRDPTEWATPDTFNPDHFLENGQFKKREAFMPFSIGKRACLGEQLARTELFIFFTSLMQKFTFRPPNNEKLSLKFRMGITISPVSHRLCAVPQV
Source text: (§1) A major metabolite formed in vitro by human liver microsomes, M1 (N-desmethyl-pimavanserin), was identified as a significant circulating metabolite in humans in vivo.

[4] = target: cytochrome P450 (CYP) 3A4 (Homo sapiens, UniProt P08684); assay: as above; type: in vitro ADME
Procedure: as §1
An in vitro study was performed to analyze the role of a CYP3A4 inhibitor in pimavanserin metabolism.

clinical = conditions: both, human, in vivo, po, 40 mg
Procedure: as §2, §3, §4, §5, §6

[5] = both, human, in vivo
Procedure: as §2, §3, §4, §5, §6

Sequence of cytochrome P450 (CYP) 3A4 (P08684 whole entry): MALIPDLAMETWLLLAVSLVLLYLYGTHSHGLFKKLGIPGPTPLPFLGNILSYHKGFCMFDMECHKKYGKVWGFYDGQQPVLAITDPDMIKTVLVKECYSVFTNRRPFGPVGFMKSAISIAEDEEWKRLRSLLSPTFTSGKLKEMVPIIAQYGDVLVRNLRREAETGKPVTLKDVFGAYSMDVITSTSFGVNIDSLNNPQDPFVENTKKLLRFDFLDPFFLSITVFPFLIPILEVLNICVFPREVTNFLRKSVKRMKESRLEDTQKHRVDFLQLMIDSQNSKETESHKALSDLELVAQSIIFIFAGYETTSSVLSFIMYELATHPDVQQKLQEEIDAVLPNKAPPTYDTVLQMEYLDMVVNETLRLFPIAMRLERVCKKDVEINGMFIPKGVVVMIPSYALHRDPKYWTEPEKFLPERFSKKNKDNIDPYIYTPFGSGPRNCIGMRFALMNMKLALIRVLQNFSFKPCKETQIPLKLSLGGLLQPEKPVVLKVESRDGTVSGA
T1 sequence (P08684 whole entry): as above

elimination half-life [1]: about 65 hours | exposure to metabolite, mean AUC ratio AUC(metabolite)/AUC(parent) [2]: 1.47 | net increase in mean AUC0-t of metabolite with ketoconazole co-administration relative to pimavanserin alone ([2]; metabolite in plasma after pimavanserin tartrate 40 mg, ketoconazole 400 mg daily): 26%
Compound: CC(C)COc1ccc(CNC(=O)N(Cc2ccc(F)cc2)C2CCNCC2)cc1 [M1, N-desmethyl-pimavanserin]

exposure to metabolite, mean AUC ratio AUC(metabolite)/AUC(parent) [2]: 0.0365
Compound: CN1CCC(N(Cc2ccc(F)cc2)C(=O)NCc2ccc(O)cc2)CC1 [M2, O-desalkyl-pimavanserin]
metabolite plasma concentrations with ketoconazole co-administration [2]: decreased plasma concentrations; also recorded: reduced

Compound: CN1CCC(N(Cc2ccc(F)cc2)C(=O)NCc2ccc(OCC(C)(C)O)cc2)CC1 [M3, [ω-1]-hydroxy-pimavanserin]
metabolite plasma concentrations with ketoconazole co-administration [2]: not detectable in any subjects; also recorded: reduced | metabolite plasma levels after pimavanserin [2]: Only 5 of the 19 subjects had a few measurable plasma levels; also recorded: Low levels

Compound: CC(CO)COc1ccc(CNC(=O)N(Cc2ccc(F)cc2)C2CCN(C)CC2)cc1 (stereo not shown) [M4, ω-hydroxy-pimavanserin]
metabolite plasma levels after pimavanserin [2]: undetectable; also recorded: no detectable concentrations

Compound: CC(C)COc1ccc(CNC(=O)N(Cc2ccc(F)cc2)C2CCN(C)CC2)cc1 [Pimavanserin, N-(1-methylpiperidin-4-yl)-N-(4-fluorophenylmethyl)-N′-(4-(2-methylpropyloxy)phenylmethyl)carbamide]
treatment-related TEAEs considered related to the substance, number (% of the 16 treatment-related TEAEs) [3]: 8 (50%) | changes in mean clinical laboratory, vital signs, 12-lead ECG or physical examination findings ([3]; following pimavanserin alone or pimavanserin with ketoconazole): No trends or clinically relevant changes | safety and tolerability ([3]; pimavanserin administered alone): safe and generally well tolerated | safety and tolerability ([3]; pimavanserin administered with ketoconazole): safe and generally well tolerated | deaths or serious adverse events during the study ([3]; pimavanserin alone and with ketoconazole, 20 subjects): No deaths or serious adverse events | effect on midazolam exposure (induction or inhibition of CYP3A4) (CYP3A4): no immediate or delayed effect | role of enzyme in formation of the primary metabolites (CYP2J2): minor role | role of enzyme in formation of the primary metabolites [4]: formed predominantly by the cytochrome P450 (CYP) 3A4 enzymes | AUC(0-inf) (clinical): 1260 ± 464 ng·h/mL | AUC(0-t) (clinical): 1220 ± 433 ng·h/mL | Cmax (clinical): 17.1 ± 3.8 ng/mL | ratio of the geometric means, pimavanserin AUC0-inf [5]: approximately 3 | ratio of the geometric means, pimavanserin AUC0-t [5]: approximately 3

Compound: CC(=O)N1CCN(c2ccc(OCC3COC(Cn4ccnc4)(c4ccc(Cl)cc4Cl)O3)cc2)CC1 (stereo not shown) [ketoconazole, reference compound]
treatment-related TEAEs considered related to the substance, number (% of the 16 treatment-related TEAEs) [3]: 12 (75%)
